Reference: ChEMBL document CHEMBL5727404, “Toll-like receptor 7 (TLR7) agonists having a heterobiaryl moiety, conjugates thereof, and methods and uses therefor” (2019)

Molecular target: T1, Toll-like receptor 7 (Homo sapiens, UniProt Q9NYK1)
T1 sequence (Q9NYK1 whole entry): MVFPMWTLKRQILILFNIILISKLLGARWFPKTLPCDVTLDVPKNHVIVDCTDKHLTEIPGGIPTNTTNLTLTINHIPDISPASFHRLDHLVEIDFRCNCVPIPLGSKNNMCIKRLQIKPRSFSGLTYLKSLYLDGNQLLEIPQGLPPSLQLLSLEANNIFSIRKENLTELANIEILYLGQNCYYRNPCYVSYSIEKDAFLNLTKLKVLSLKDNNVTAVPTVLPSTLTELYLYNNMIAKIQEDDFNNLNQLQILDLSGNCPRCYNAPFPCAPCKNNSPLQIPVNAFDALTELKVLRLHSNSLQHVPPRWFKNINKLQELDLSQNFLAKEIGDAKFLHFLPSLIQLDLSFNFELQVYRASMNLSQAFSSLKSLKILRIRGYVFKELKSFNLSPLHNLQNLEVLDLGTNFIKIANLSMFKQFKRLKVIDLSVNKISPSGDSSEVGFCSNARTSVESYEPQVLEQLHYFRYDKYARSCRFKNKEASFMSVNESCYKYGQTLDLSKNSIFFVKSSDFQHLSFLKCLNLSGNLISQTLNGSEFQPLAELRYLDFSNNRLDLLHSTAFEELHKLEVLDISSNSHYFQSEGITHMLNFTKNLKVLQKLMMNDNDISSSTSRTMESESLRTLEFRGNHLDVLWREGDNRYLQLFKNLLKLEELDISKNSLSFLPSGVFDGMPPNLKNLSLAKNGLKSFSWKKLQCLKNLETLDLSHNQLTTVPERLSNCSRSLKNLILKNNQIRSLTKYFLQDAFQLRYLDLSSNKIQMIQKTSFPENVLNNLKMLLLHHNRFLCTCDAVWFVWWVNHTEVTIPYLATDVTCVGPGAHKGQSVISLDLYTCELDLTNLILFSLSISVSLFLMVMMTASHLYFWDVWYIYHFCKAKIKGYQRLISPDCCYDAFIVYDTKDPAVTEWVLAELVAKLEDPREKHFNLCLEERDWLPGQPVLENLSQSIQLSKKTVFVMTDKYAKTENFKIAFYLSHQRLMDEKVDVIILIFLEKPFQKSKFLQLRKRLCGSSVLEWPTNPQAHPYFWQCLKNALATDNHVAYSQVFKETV
Test: HEK-Blue™ TLR7 cells were added to each well of a 384-well tissue-culture plate (15,000 cells per well) and incubated 16-18 h at 37° C., 5% CO2. Compounds (100 nl) were dispensed into wells containing the HEK-Blue™ TLR cells and the treated cells were incubated at 37° C., 5% CO2. After 18 h treatment ten microliters of freshly-prepared Quanti-Blue reagent (Invivogen) was added to each well, incubated for 30 min (37° C., 5% CO2) and SEAP levels measured using an Envision plate reader (OD=620 nm).

EC50	SMILES
52 nM	CCCCOc1nc(N)c2nc(O)n(Cc3ccc(-c4csc(CN)c4)nc3)c2n1
59 nM	CCCCOc1nc(N)c2nc(O)n(Cc3ccc(-c4csc(CN)c4)cc3)c2n1
